In patent US20220008391A1, “NOVEL COMPOUNDS FOR CONTROLLING ARTHROPODS” (Bayer Animal Health GmbH, priority 2018, published 2022):
Values after ≈ are worked out from the molar mass of the structure shown.

Experiment: Measurement of solubility in buffer at pH 6.5
Type: physicochemical
Conditions: aqueous buffer, kinetic from dmso stock; PBS buffer pH 6.5, shaken 24h at rt, LC-MSMS; read-out: Solubility of example compounds at pH 6.5
Method: Measurement of Solubility in Buffer at pH 6.5 2-4 mg of the test compound are dissolved in DMSO to reach a concentration of 50 g/L (solution A). To 10 μl of this solution 960 μl PBS buffer pH 6.5 are added (final concentration: 515 μg/1); the mixture is shaken for 24h at rt in a 96 well plate. An aliquot is centrifuged at 42000 rpm für 30 min. The supernatant is diluted with acetonitrile/water (8:2) 1:10 and 1:1000 resp. This diluted samples are analyzed by LC-MSMS. Calibration: 10 μl of solution A are diluted with 823 μl DMSO (final concentration: 600 μg/ml), which is further diluted with acetonitrile/water 8:2 by a factor of 100 (provides solution B). The calibration curve is obtained from solution B by further diluting with acetonitrile/water 8:2 with target concentrations of 1.2-12-60-600 ng/ml and injecting these four solutions for MS measurement. PBS-Puffer: 6.18 g sodium chloride and 3.96 g sodium dihydrogen phosphate are dissolved in 1 L aqua dist., the pH is adjusted to 6.5 with 1N sodium hydroxide. The following conditions were used for quantification: Autosampler without auto inject ahead setting, column: Waters OASIS HLB, 2,1×20 mm, 25μ, column temperature: 30° C., flow rate: 2.5 mL/min, injected volume: 2 μl, Splitter (before MS) 1:20.

| SMILES | solubility at 24 h [µg/mL] |
| --- | --- |
| N#CC1(N(COC(=O)O[C@H]2CC[C@H](OC(=O)/C=C/C(=O)O)CC2)C(=O)c2cc(-c3cnn(-c4c(Cl)cc(C(F)(C(F)(F)F)C(F)(F)F)cc4OC(F)(F)F)c3)ccc2Cl)CC1 [Example 16, (2E)-4-({trans-4-[({[(2-chloro-5-{1-[2-chloro-4-(1,1,1,2,3,3,3-heptafluoropropan-2-yl)-6-(trifluoromethoxy)phenyl]-1H-pyrazol-4-yl}benzoyl)(1-cyanocyclopropyl)amino]methoxy}carbonyl)oxy]cyclohexyl}oxy)-4-oxobut-2-enoic Acid] | 2 (≈ 2.18 µM) |
| Cn1nc(C(F)(F)C(F)(F)F)c(C(F)(F)F)c1-n1cc(-c2ccc(Cl)c(C(=O)N(COC(=O)O[C@H]3CC[C@@H](C(=O)O)CC3)C3(C#N)CC3)c2)cn1 [Example 23, Cis-4-[({[{2-Chloro-5-[2′-methyl-5′-(pentafluoroethyl)-4′-(trifluoromethyl)-2′H-[1,3′-bipyrazol]-4-yl]benzoyl}(1-cyanocyclopropyl)amino]methoxy}carbonyl)oxy]cyclohexane-1-carboxylic Acid] | 50 (≈ 66.4 µM) |
| N#CC1(N(COC(=O)O[C@H]2CCC[C@H]2OC(=O)/C=C/C(=O)O)C(=O)c2cc(-c3cnn(-c4c(Cl)cc(C(F)(C(F)(F)F)C(F)(F)F)cc4OC(F)(F)F)c3)ccc2Cl)CC1 (relative stereo) [Example 6, (2E)-4-({(rel 1R,2S)-2-[({[(2-chloro-5-{1-[2-chloro-4-(1,1,1,2,3,3,3-heptafluoropropan-2-yl)-6-(trifluoromethoxy)phenyl]-1H-pyrazol-4-yl}benzoyl)(1-cyanocyclopropyl)amino]methoxy}carbonyl)oxy]cyclopentyl}oxy)-4-oxobut-2-enoic Acid] | 4 (≈ 4.42 µM) |
| Cn1nc(C(F)(F)C(F)(F)F)c(C(F)(F)F)c1-n1cc(-c2ccc(Cl)c(C(=O)N(COC(=O)OCCCOC(=O)/C=C/C(=O)O)C3(C#N)CC3)c2)cn1 [Example 25, (12E)-1-{2-Chloro-5-[2′-methyl-5′-(pentafluoroethyl)-4′-(trifluoromethyl)-2′H-[1,3′-bipyrazol]-4-yl]phenyl}-2-(1-cyanocyclopropyl)-1,5,11-trioxo-4,6,10-trioxa-2-azatetradec-12-en-14-oic Acid] | 98 (≈ 125 µM) |
| N#CC1(N(COC(=O)O[C@H]2CC[C@@H](C(=O)O)CC2)C(=O)c2cc(-c3cnn(-c4c(Cl)cc(C(F)(C(F)(F)F)C(F)(F)F)cc4OC(F)(F)F)c3)ccc2Cl)CC1 [Example 17, Cis-4-[({[(2-Chloro-5-{1-[2-chloro-4-(1,1,1,2,3,3,3-heptafluoropropan-2-yl)-6-(trifluoromethoxy)phenyl]-1H-pyrazol-4-yl}benzoyl)(1-cyanocyclopropyl)amino]methoxy}carbonyl)oxy]cyclohexane-1-carboxylic Acid] | 2 (≈ 2.35 µM) |
| N#CC1(N(COC(=O)O[C@H]2CC[C@@H](OC(=O)/C=C/C(=O)O)CC2)C(=O)c2cc(-c3cnn(-c4c(Cl)cc(C(F)(C(F)(F)F)C(F)(F)F)cc4OC(F)(F)F)c3)ccc2Cl)CC1 [Example 14, (2E)-4-({cis-4-[({[(2-chloro-5-{1-[2-chloro-4-(1,1,1,2,3,3,3-heptafluoropropan-2-yl)-6-(trifluoromethoxy)phenyl]-1H-pyrazol-4-yl}benzoyl)(1-cyanocyclopropyl)amino]methoxy}carbonyl)oxy]cyclohexyl}oxy)-4-oxobut-2-enoic Acid] | 19 (≈ 20.7 µM) |
| N#CC1(N(COC(=O)OCC2(C(=O)O)CC2)C(=O)c2cc(-c3cnn(-c4c(Cl)cc(C(F)(C(F)(F)F)C(F)(F)F)cc4OC(F)(F)F)c3)ccc2Cl)CC1 [Example 35, 1-{[({[(2-chloro-5-{1-[2-chloro-4-(1,1,1,2,3,3,3-heptafluoropropan-2-yl)-6-(trifluoromethoxy)phenyl]-1H-pyrazol-4-yl}benzoyl)(1-cyanocyclopropyl)amino]methoxy}carbonyl)oxy]methyl}cyclopropane-1-carboxylic Acid] | 8 (≈ 9.74 µM) |
| Cn1nc(C(F)(F)C(F)(F)F)c(C(F)(F)F)c1-n1cc(-c2ccc(Cl)c(C(=O)N(COC(=O)OCC(C)(C)COC(=O)CCC(=O)O)C3(C#N)CC3)c2)cn1 [Example 29, 1-{2-Chloro-5-[2′-methyl-5′-(pentafluoroethyl)-4′-(trifluoromethyl)-2′H-[1,3′-bipyrazol]-4-yl]phenyl}-2-(1-cyanocyclopropyl)-8,8-dimethyl-1,5,11-trioxo-4,6,10-trioxa-2-azatetradecan-14-oic Acid] | 35 (≈ 43 µM) |
| N#CC1(N(COC(=O)OCCOC(=O)CCCC(=O)O)C(=O)c2cc(-c3cnn(-c4c(Cl)cc(C(F)(C(F)(F)F)C(F)(F)F)cc4OC(F)(F)F)c3)ccc2Cl)CC1 [Example 12, 1-(2-Chloro-5-{1-[2-chloro-4-(1,1,1,2,3,3,3-heptafluoropropan-2-yl)-6-(trifluoromethoxy)phenyl]-1H-pyrazol-4-yl}phenyl)-2-(1-cyanocyclopropyl)-1,5,10-trioxo-4,6,9-trioxa-2-azatetradecan-14-oic Acid] | 3 (≈ 3.4 µM) |

Now from value to molecule:

| solubility at 24 h [µg/mL] | SMILES |
| --- | --- |
| 37 (≈ 45.6 µM) | Cn1nc(C(F)(F)C(F)(F)F)c(C(F)(F)F)c1-n1cc(-c2ccc(Cl)c(C(=O)N(COC(=O)O[C@@H]3CCC[C@H]3OC(=O)CCC(=O)O)C3(C#N)CC3)c2)cn1 [Example 38, 4-({(1R,2R)-2-[({[{2-Chloro-5-[2′-methyl-5′-(pentafluoroethyl)-4′-(trifluoromethyl)-2′H-[1,3′-bipyrazol]-4-yl]benzoyl}(1-cyanocyclopropyl)amino]methoxy}carbonyl)oxy]cyclopentyl}oxy)-4-oxobutanoic Acid] |
| 1 (≈ 1.15 µM) | CC(C)(COCCOC(=O)OCN(C(=O)c1cc(-c2cnn(-c3c(Cl)cc(C(F)(C(F)(F)F)C(F)(F)F)cc3OC(F)(F)F)c2)ccc1Cl)C1(C#N)CC1)C(=O)O [Example 8, 1-(2-chloro-5-{1-[2-chloro-4-(1,1,1,2,3,3,3-heptafluoropropan-2-yl)-6-(trifluoromethoxy)phenyl]-1H-pyrazol-4-yl}phenyl)-2-(1-cyanocyclopropyl)-11,11-dimethyl-1,5-dioxo-4,6,9-trioxa-2-azadodecan-12-oic Acid] |
| 7 (≈ 8.65 µM) | N#CC1(N(COC(=O)OCCCC(=O)O)C(=O)c2cc(-c3cnn(-c4c(Cl)cc(C(F)(C(F)(F)F)C(F)(F)F)cc4OC(F)(F)F)c3)ccc2Cl)CC1 [Example 37, 4-[({[(2-Chloro-5-{1-[2-chloro-4-(1,1,1,2,3,3,3-heptafluoropropan-2-yl)-6-(trifluoromethoxy)phenyl]-1H-pyrazol-4-yl}benzoyl)(1-cyanocyclopropyl)amino]methoxy}carbonyl)oxy]butanoic Acid] |
| 42 (≈ 53.8 µM) | N#CC1(N(COC(=O)OCC(=O)O)C(=O)c2cc(-c3cnn(-c4c(Cl)cc(C(F)(C(F)(F)F)C(F)(F)F)cc4OC(F)(F)F)c3)ccc2Cl)CC1 [Example 19, [({[(2-chloro-5-{1-[2-chloro-4-(1,1,1,2,3,3,3-heptafluoropropan-2-yl)-6-(trifluoromethoxy)phenyl]-1H-pyrazol-4-yl}benzoyl)(1-cyanocyclopropyl)amino]methoxy}carbonyl)oxy]acetic Acid] |
| 96 (≈ 122 µM) | Cn1nc(C(F)(F)C(F)(F)F)c(C(F)(F)F)c1-n1cc(-c2ccc(Cl)c(C(=O)N(COC(=O)OCCCOC(=O)CCC(=O)O)C3(C#N)CC3)c2)cn1 [Example 26, 1-{2-Chloro-5-[2′-methyl-5′-(pentafluoroethyl)-4′-(trifluoromethyl)-2′H-[1,3′-bipyrazol]-4-yl]phenyl}-2-(1-cyanocyclopropyl)-1,5,11-trioxo-4,6,10-trioxa-2-azatetradecan-14-oic Acid] |
| 212 (≈ 297 µM) | Cn1nc(C(F)(F)C(F)(F)F)c(C(F)(F)F)c1-n1cc(-c2ccc(Cl)c(C(=O)N(COC(=O)OCCCC(=O)O)C3(C#N)CC3)c2)cn1 [Example 20, 4-[({[{2-Chloro-5-[2′-methyl-5′-(pentafluoroethyl)-4′-(trifluoromethyl)-2′H-[1,3′-bipyrazol]-4-yl]benzoyl}(1-cyanocyclopropyl)amino]methoxy}carbonyl)oxy]butanoic Acid] |
| 6 (≈ 6.92 µM) | N#CC1(N(COC(=O)OCCOC(=O)CCC(=O)O)C(=O)c2cc(-c3cnn(-c4c(Cl)cc(C(F)(C(F)(F)F)C(F)(F)F)cc4OC(F)(F)F)c3)ccc2Cl)CC1 [Example 3, 1-(2-Chloro-5-{1-[2-chloro-4-(1,1,1,2,3,3,3-heptafluoropropan-2-yl)-6-(trifluoromethoxy)phenyl]-1H-pyrazol-4-yl}phenyl)-2-(1-cyanocyclopropyl)-1,5,10-trioxo-4,6,9-trioxa-2-azatridecan-13-oic Acid] |
| 1 (≈ 1.09 µM) | N#CC1(N(COC(=O)O[C@H]2CC[C@@H](OC(=O)CCC(=O)O)CC2)C(=O)c2cc(-c3cnn(-c4c(Cl)cc(C(F)(C(F)(F)F)C(F)(F)F)cc4OC(F)(F)F)c3)ccc2Cl)CC1 [Example 15, 4-({cis-4-[({[(2-chloro-5-{1-[2-chloro-4-(1,1,1,2,3,3,3-heptafluoropropan-2-yl)-6-(trifluoromethoxy)phenyl]-1H-pyrazol-4-yl}benzoyl)(1-cyanocyclopropyl)amino]methoxy}carbonyl)oxy]cyclohexyl}oxy)-4-oxobutanoic Acid] |
